Assay results as given in PubChem BioAssay (NCI).
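A five-concentration, 48-hour dose response in 96-well plates underlies each endpoint, interpolated linearly between surrounding concentrations. GI50 = concentration required for 50% inhibition of growth. TGI is the concentration that stops growth completely.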

Assays:
Assay in all cases: growth of human tumour cells (NCI), 48 h
[1] = tested on: UACC-257 melanoma
[2] = tested on: MDA-MB-231 breast
[3] = tested on: MCF7 breast
[4] = tested on: HOP-92 NSCLC
[5] = tested on: CCRF-CEM leukemia
[6] = tested on: HCT-116 colon
[7] = tested on: COLO 205 colon
[8] = tested on: HOP-62 NSCLC
[9] = tested on: OVCAR-8 ovarian
[10] = tested on: MOLT-4 leukemia
[11] = tested on: SNB-19 CNS
[12] = tested on: IGROV1 ovarian
[13] = tested on: CAKI-1 renal
[14] = tested on: K-562 leukemia
[15] = tested on: A549 NSCLC
[16] = tested on: SF-268 CNS
[17] = tested on: NCI-H226 lung
[18] = tested on: SK-OV-3 ovarian
[19] = tested on: EKVX NSCLC
[20] = tested on: MDA-MB-435
[21] = tested on: RXF 393 renal
[22] = tested on: T-47D breast
[23] = tested on: NCI/ADR-RES ovarian
[24] = tested on: RPMI-8226 leukemia
[25] = tested on: HL-60(TB) leukemia
[26] = tested on: KM12 colon
[27] = tested on: HCC-2998 colon
[28] = tested on: HCT-15 colon
[29] = tested on: OVCAR-5 ovarian
[30] = tested on: SK-MEL-5 melanoma
[31] = tested on: SF-295 CNS
[32] = tested on: PC-3 prostate
[33] = tested on: NCI-H460 lung
[34] = tested on: NCI-H23 lung
[35] = tested on: M14 melanoma
[36] = tested on: U251 CNS
[37] = tested on: OVCAR-3 ovarian
[38] = tested on: ACHN renal
[39] = tested on: OVCAR-4 ovarian
[40] = tested on: A498 renal
[41] = tested on: SK-MEL-28 melanoma
[42] = tested on: UO-31 renal
[43] = tested on: UACC-62 melanoma
[44] = tested on: DU-145 prostate
[45] = tested on: LOX IMVI melanoma
[46] = tested on: MALME-3M melanoma
[47] = tested on: SW-620 colon
[48] = tested on: SN12C renal
[49] = tested on: HT29 colon
[50] = tested on: TK-10 renal
[51] = tested on: HS 578T breast
[52] = tested on: SNB-75 CNS
[53] = tested on: SF-539 CNS
[54] = tested on: BT-549 breast
[55] = tested on: 786-0 renal
[56] = tested on: SK-MEL-2 melanoma
[57] = tested on: NCI-H522 lung

COc1cc2cc(Oc3ccc(NC(=O)Nc4ccc(Cl)c(C(F)(F)F)c4)cc3)c(C)nc2cc1OCCN1CCOCC1
GI50 [1]: 1.57 µM
TGI [1]: 4.55 µM
GI50 [2]: 2 µM
TGI [2]: 5.07 µM
GI50 [3]: 1.26 µM
TGI [3]: 3.33 µM
GI50 [4]: 1.66 µM
TGI [4]: 6.16 µM
GI50 [5]: 1.45 µM
TGI [5]: > 100 µM
GI50 [6]: 1.2 µM
TGI [6]: 10.8 µM
GI50 [7]: 1.63 µM
TGI [7]: 3.78 µM
GI50 [8]: 2.05 µM
TGI [8]: 4.55 µM
GI50 [9]: 2.67 µM
TGI [9]: > 100 µM
GI50 [10]: 1.48 µM
TGI [10]: 10.5 µM
GI50 [11]: 3.23 µM
TGI [11]: 19.8 µM
GI50 [12]: 2.43 µM
TGI [12]: 23.2 µM
GI50 [13]: 1.8 µM
TGI [13]: 10.8 µM
GI50 [14]: 0.669 µM
TGI [14]: 6.95 µM
GI50 [15]: 2.13 µM
TGI [15]: > 100 µM
GI50 [16]: 2.59 µM
TGI [16]: 8.44 µM
GI50 [17]: 1.86 µM
TGI [17]: 5.91 µM
GI50 [18]: 3.34 µM
TGI [18]: 17.5 µM
GI50 [19]: 2.07 µM
TGI [19]: 13.7 µM
GI50 [20]: 1.94 µM
TGI [20]: 4.1 µM
GI50 [21]: 1.77 µM
TGI [21]: 3.99 µM
GI50 [22]: 1.32 µM
TGI [22]: 5.2 µM
GI50 [23]: 2.34 µM
TGI [23]: 12.6 µM
GI50 [24]: 0.936 µM
TGI [24]: 4.34 µM
GI50 [25]: 2.32 µM
TGI [25]: 7.55 µM
GI50 [26]: 1.91 µM
TGI [26]: 5.3 µM
GI50 [27]: 3.68 µM
TGI [27]: 11.1 µM
GI50 [28]: 1.45 µM
TGI [28]: 3.18 µM
GI50 [29]: 4.02 µM
TGI [29]: 65.2 µM
GI50 [30]: 1.14 µM
TGI [30]: 2.37 µM
GI50 [31]: 1.19 µM
TGI [31]: 2.85 µM
GI50 [32]: 1.36 µM
TGI [32]: 6 µM
GI50 [33]: 1.65 µM
TGI [33]: 3.62 µM
GI50 [34]: 1.12 µM
TGI [34]: 3.89 µM
GI50 [35]: 1.52 µM
TGI [35]: 3.45 µM
GI50 [36]: 1.76 µM
TGI [36]: 3.89 µM
GI50 [37]: 1.52 µM
TGI [37]: 3.47 µM
GI50 [38]: 2.03 µM
TGI [38]: 11.6 µM
GI50 [39]: 0.582 µM
TGI [39]: 3.41 µM
GI50 [40]: 2.45 µM
TGI [40]: 9.62 µM
GI50 [41]: 1.55 µM
TGI [41]: 3.12 µM
GI50 [42]: 1.4 µM
TGI [42]: 3.34 µM
GI50 [43]: 1.36 µM
TGI [43]: 3.46 µM
GI50 [44]: 2.69 µM
TGI [44]: 13.8 µM
GI50 [45]: 1.39 µM
TGI [45]: 2.81 µM
GI50 [46]: 1.52 µM
TGI [46]: 3.27 µM
GI50 [47]: 2.31 µM
TGI [47]: 5.52 µM
GI50 [48]: 2.56 µM
TGI [48]: 56.2 µM
GI50 [49]: 2.57 µM
TGI [49]: 11.2 µM
GI50 [50]: 4.97 µM
TGI [50]: 35.2 µM
GI50 [51]: 1.83 µM
TGI [51]: 5.11 µM
GI50 [52]: 1.65 µM
TGI [52]: 7.05 µM
GI50 [53]: 1.68 µM
TGI [53]: 3.26 µM
GI50 [54]: 2.63 µM
TGI [54]: 9.33 µM
GI50 [55]: 1.89 µM
TGI [55]: 4.15 µM
GI50 [56]: 1.65 µM
TGI [56]: 4.06 µM
GI50 [57]: 1.43 µM
TGI [57]: 4.07 µM
